One assay addresses T1, Calcitonin receptor (Homo sapiens, UniProt P30988).
T1 sequence (P30988 whole entry): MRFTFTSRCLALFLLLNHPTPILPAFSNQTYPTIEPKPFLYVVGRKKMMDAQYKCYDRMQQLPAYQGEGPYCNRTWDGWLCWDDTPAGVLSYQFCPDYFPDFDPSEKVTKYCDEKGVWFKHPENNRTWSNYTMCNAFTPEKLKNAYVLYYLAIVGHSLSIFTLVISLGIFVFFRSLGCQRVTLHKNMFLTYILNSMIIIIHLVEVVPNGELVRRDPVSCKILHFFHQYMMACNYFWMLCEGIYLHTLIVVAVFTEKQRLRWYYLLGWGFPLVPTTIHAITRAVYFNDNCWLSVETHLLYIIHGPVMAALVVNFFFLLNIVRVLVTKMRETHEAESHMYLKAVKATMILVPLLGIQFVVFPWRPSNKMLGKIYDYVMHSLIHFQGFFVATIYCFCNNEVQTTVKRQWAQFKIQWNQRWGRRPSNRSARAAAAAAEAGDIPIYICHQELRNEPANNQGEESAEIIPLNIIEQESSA
Format: cell membranes, Membrane. The note with it: t47d.

The target of a further assay is T2, Substance-K receptor (Homo sapiens, UniProt P21452). Also: in other assays of this panel Not Active means under 50% inhibition at 10 µM.
T2 sequence (P21452 whole entry): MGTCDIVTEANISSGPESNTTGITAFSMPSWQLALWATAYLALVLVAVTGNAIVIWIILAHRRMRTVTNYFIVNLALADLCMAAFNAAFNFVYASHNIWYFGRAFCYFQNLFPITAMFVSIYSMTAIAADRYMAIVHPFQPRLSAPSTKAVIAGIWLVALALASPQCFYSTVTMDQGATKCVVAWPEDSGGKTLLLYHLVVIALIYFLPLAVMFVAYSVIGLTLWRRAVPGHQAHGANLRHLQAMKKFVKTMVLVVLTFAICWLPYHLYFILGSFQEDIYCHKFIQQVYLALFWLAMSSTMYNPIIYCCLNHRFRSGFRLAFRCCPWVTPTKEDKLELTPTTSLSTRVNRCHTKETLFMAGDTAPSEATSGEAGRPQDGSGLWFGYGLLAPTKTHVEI
The assay is classed as cell membranes, CHO, Membrane. The following applies: for IC50: cho.

Assay [1] in a line: DRUGMATRIX: GABAA, Muscimol, Central radioligand binding (ligand: [3H] Muscimol). The note with it: Not Active = under 50% inhibition at 10 µM. The assay is classed as cell membranes, Rattus norvegicus, Wistar, Brain, Membrane.
Assay [2] can be described thus: DRUGMATRIX: Glutamate, AMPA radioligand binding (ligand: [3H] AMPA). Format: cell membranes, Rattus norvegicus, Wistar, Cerebral cortex, Membrane. The note with it: Not Active = under 50% inhibition at 10 µM.
A further assay deals with Histamine H2 receptor (Homo sapiens, UniProt P25021). The assay is classed as cell membranes, CHO-K1, Membrane. The note with it: for IC50: cho-k1.
Assay [3] is described as follows: DRUGMATRIX: Imidazoline I2, Central radioligand binding (ligand: [3H] Idazoxan). The assay is classed as cell membranes, Rattus norvegicus, Wistar, Cerebral cortex, Membrane. The following applies: Not Active = under 50% inhibition at 10 µM.
Another assay concerns the target Melanocortin receptor 4 (Homo sapiens, UniProt P32245). The assay is classed as cell membranes, Membrane. The note with it: hek293. Also: in other assays of this panel Not Active means under 50% inhibition at 10 µM.

pIC50, pKi: −log10 of the molar value.

Melanocortin receptor 4, sequence (P32245 whole entry): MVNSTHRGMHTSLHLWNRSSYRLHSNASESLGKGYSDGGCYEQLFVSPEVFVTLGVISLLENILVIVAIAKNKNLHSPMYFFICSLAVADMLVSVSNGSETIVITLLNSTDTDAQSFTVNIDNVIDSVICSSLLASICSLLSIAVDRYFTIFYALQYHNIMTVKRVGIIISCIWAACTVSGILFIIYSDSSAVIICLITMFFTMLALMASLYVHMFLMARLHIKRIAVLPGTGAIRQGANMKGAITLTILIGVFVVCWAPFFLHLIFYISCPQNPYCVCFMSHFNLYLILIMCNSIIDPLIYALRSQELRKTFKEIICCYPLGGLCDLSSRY
Histamine H2 receptor, sequence (P25021 whole entry): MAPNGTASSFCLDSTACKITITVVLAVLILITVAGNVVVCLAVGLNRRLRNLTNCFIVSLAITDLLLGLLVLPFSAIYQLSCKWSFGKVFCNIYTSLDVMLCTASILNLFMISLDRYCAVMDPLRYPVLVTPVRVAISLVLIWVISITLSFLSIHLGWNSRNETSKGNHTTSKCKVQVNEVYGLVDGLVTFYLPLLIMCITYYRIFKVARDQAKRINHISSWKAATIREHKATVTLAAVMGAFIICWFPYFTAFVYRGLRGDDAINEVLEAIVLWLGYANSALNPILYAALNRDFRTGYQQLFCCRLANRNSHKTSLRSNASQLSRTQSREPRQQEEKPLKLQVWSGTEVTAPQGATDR

In the case of `Nc1nc(F)nc2c1ncn2[C@@H]1O[C@H](CO)[C@@H](O)[C@@H]1O` [FLUDARABINE], the IC50 entry (on Calcitonin receptor; against Substance-K receptor; in assay [1]; in assay [2]; against Histamine H2 receptor; in assay [3]) was “Not Active” throughout. Further, the IC50 entry against Melanocortin receptor 4 is on record as “Not Active”. For the same compound, the Ki result in assay [1], in assay [2] and in assay [3] was “Not Active” each time.
On to `C[C@H](C(=O)O)c1ccc2oc(-c3ccc(F)cc3)nc2c1` [FLUNOXAPROFEN], for which the IC50 result (at Calcitonin receptor; against Substance-K receptor; in assay [1]; in assay [2]; at Histamine H2 receptor; in assay [3]) was “Not Active” each time. Besides, the IC50 result against Melanocortin receptor 4 is “Not Active”. For the same compound, the Ki result in assay [1], in assay [2] and in assay [3] was “Not Active” each time.
For `NS(=O)(=O)c1cc(C(=O)O)c(NCc2ccco2)cc1Cl` [FUROSEMIDE], the IC50 result (on Calcitonin receptor; on Substance-K receptor; in assay [1]; in assay [2]; against Histamine H2 receptor; in assay [3]) was “Not Active” in each case. In addition, on Melanocortin receptor 4, the IC50 entry is given as “Not Active”. Further, the Ki entry in assay [1], in assay [2] and in assay [3] was “Not Active” in each case.
For the compound `COc1ccc(Cl)cc1C(=O)NCCc1ccc(S(=O)(=O)NC(=O)NC2CCCCC2)cc1` [GLYBURIDE], the IC50 entry (at Calcitonin receptor; against Substance-K receptor; in assay [1]; in assay [2]; at Histamine H2 receptor; in assay [3]) was “Not Active” each time. Moreover, the IC50 result against Melanocortin receptor 4 was “Not Active”. Besides, the Ki result in assay [1], in assay [2] and in assay [3] was “Not Active” throughout.
Consider `O=C(O)CO` [GLYCOLIC ACID], for which the IC50 result (at Calcitonin receptor; against Substance-K receptor; in assay [1]; in assay [2]; against Histamine H2 receptor; in assay [3]) was “Not Active” each time. The IC50 entry against Melanocortin receptor 4 is recorded as “Not Active”. Further, the Ki result in assay [1], in assay [2] and in assay [3] was “Not Active” in each case.
Regarding `O=C(O)CNCP(=O)(O)O` [GLYPHOSATE], the IC50 result (at Calcitonin receptor; on Substance-K receptor; in assay [1]; in assay [2]; on Histamine H2 receptor; in assay [3]) was “Not Active” each time. Further, the IC50 result against Melanocortin receptor 4 is “Not Active”. The Ki result in assay [1], in assay [2] and in assay [3] was “Not Active” each time.
Consider `Clc1cc(Cl)c(OCC#CI)cc1Cl` [HALOPROGIN], for which the IC50 entry (on Calcitonin receptor; in assay [1]; in assay [2]; on Histamine H2 receptor; in assay [3]; against Melanocortin receptor 4) was “Not Active” throughout. The pIC50 on Substance-K receptor (read-out: IC50) was 5.83. The pKi at Substance-K receptor (read-out: Ki) is 6.31. Besides, the Ki result in assay [1], in assay [2] and in assay [3] was “Not Active” throughout.
As to `COC(=O)C[C@](O)(CCC(C)(C)O)C(=O)O[C@@H]1C(OC)=C[C@]23CCCN2CCc2cc4c(cc2[C@H]13)OCO4` [HARRINGTONINE], the IC50 entry (on Calcitonin receptor; on Substance-K receptor; in assay [1]; in assay [2]; at Histamine H2 receptor; in assay [3]) was “Not Active” throughout. Further, the IC50 entry against Melanocortin receptor 4 is “Not Active”. Moreover, the Ki entry in assay [1], in assay [2] and in assay [3] was “Not Active” each time.
As to `CCN(CCO)CCCC(C)Nc1ccnc2cc(Cl)ccc12` (configuration not stated) [HYDROXYCHLOROQUINE], the IC50 entry (at Calcitonin receptor; against Substance-K receptor; in assay [1]; in assay [2]; on Histamine H2 receptor; on Melanocortin receptor 4) was “Not Active” in each case. For the same compound, the Ki result in assay [1] and in assay [2] was “Not Active” in each case. For the same compound, the pIC50 in assay [3] (read-out: IC50) was 6.32. Moreover, the pKi in assay [3] (read-out: Ki) was 6.50.
Regarding `CC(=O)[C@]1(O)Cc2c(O)c3c(c(O)c2[C@@H](O[C@H]2C[C@H](N)[C@H](O)[C@H](C)O2)C1)C(=O)c1ccccc1C3=O` [IDARUBICIN], the IC50 entry (at Calcitonin receptor; against Substance-K receptor; in assay [1]; in assay [2]; against Histamine H2 receptor; in assay [3]) was “Not Active” each time. Also, the IC50 entry against Melanocortin receptor 4 is listed as “Not Active”. The Ki result in assay [1], in assay [2] and in assay [3] was “Not Active” throughout.
With `CC(C)Cn1cnc2c(N)nc3ccccc3c21` [IMIQUIMOD], the IC50 result (at Calcitonin receptor; on Substance-K receptor; in assay [1]; in assay [2]; in assay [3]; on Melanocortin receptor 4) was “Not Active” in each case. The Ki result in assay [1], in assay [2] and in assay [3] was “Not Active” each time. Further, the pIC50 on Histamine H2 receptor (read-out: IC50) was 5.82. For the same compound, on Histamine H2 receptor (read-out: Ki), the pKi is 5.83.
`O=C(NCCN1CCOCC1)c1ccc(Cl)cc1` [MOCLOBEMIDE]: the IC50 entry (on Calcitonin receptor; against Substance-K receptor; in assay [1]; in assay [2]; against Histamine H2 receptor; in assay [3]) was “Not Active” in each case. Also, on Melanocortin receptor 4, the IC50 entry was “Not Active”. The Ki entry in assay [1], in assay [2] and in assay [3] was “Not Active” each time.
On to `C=CCN1CC[C@]23c4c5ccc(O)c4O[C@H]2/C(=N/N=C2\CC[C@@]4(O)[C@H]6Cc7ccc(O)c8c7[C@@]4(CCN6CC=C)[C@H]2O8)CC[C@@]3(O)[C@H]1C5` [NALOXONAZINE], for which the IC50 entry (on Calcitonin receptor; against Substance-K receptor; in assay [1]; in assay [2]; against Histamine H2 receptor; in assay [3]) was “Not Active” throughout. Besides, the IC50 entry against Melanocortin receptor 4 was “Not Active”. For the same compound, the Ki entry in assay [1], in assay [2] and in assay [3] was “Not Active” throughout.
Consider `Cc1ccnc2c1NC(=O)c1cccnc1N2C1CC1` [NEVIRAPINE], for which the IC50 entry (at Calcitonin receptor; against Substance-K receptor; in assay [1]; in assay [2]; at Histamine H2 receptor; in assay [3]) was “Not Active” each time. The IC50 result against Melanocortin receptor 4 is recorded as “Not Active”. The Ki entry in assay [1], in assay [2] and in assay [3] was “Not Active” in each case.
With `O=C1CN(/N=C/c2ccc([N+](=O)[O-])o2)C(=O)N1` [NITROFURANTOIN], the IC50 result (on Calcitonin receptor; against Substance-K receptor; in assay [1]; in assay [2]; against Histamine H2 receptor; in assay [3]) was “Not Active” in each case. In addition, the IC50 entry against Melanocortin receptor 4 is reported as “Not Active”. Besides, the Ki result in assay [1], in assay [2] and in assay [3] was “Not Active” in each case.

For orientation: pIC50 means the IC50 on a negative log10 scale, so that one unit is a factor of ten. For orientation: pKi means the negative decadic logarithm of the Ki, by convention in mol/L.

Values taken from ChEMBL document CHEMBL1909046, “DrugMatrix in vitro pharmacology data”.
